Consider 14 compounds from patent publication US20100222332A1, “PYRAZOLO-PYRAZINES DERIVATIVES USED AS G PROTEIN INHIBITORS” (Ipsen Pharma S.A.S., priority 2007, published 2010).

Structures can show the parent of a compound that is named as a salt. A value given as a limit tells only on which side of the number the result lay.

For one series, the system named is LNCaP (human prostate cancer cells). The experiment in a line: Anti-proliferative activity on LNCaP cell line (WST1 colorimetric test). The settings on record: treated for 96 hours, read-out: IC50 on the cell proliferation of the LNCaP lines. In kind it is cell-based. The method, then:
(§1) By way of example, the effect of a treatment on three human cell lines DU145, LNCaP and A2058 with the compounds of the examples described previously will be studied. The cell lines DU145 and LNCaP (human prostate cancer cells) and A2058 (human melanoma cancer cells) were acquired from the American Tissue Culture Collection (Rockville, Md., USA). The cells placed in 80 μl of Dulbecco's Modified Eagle medium (Gibco-Brl, Cergy-Pontoise, France) completed with 10% foetal calf serum inactivated by heating (Gibco-Brl, Cergy-Pontoise, France), 50000 units/l of penicillin and 50 mg/l streptomycin (Gibco-Brl, Cergy-Pontoise, France), and 2 mM of glutamin (Gibco-Brl, Cergy-Pontoise, France) were seeded on a 96-well plate on day 0. The cells were treated on day 1 for 96 hours with increasing concentrations of each of the compounds to be tested up to 10 μM. At the end of this period, the quantification of the cell proliferation is evaluated by a colorimetric test based on the cleavage of the tetrazolium salt WST1 by mitochondrial dehydrogenases in the viable cells leading to the formation of formazan (Boehringer Mannheim, Meylan, France). These tests are carried out in duplicate with 8 determinations per tested concentration. For each compound to be tested, the values included in the linear part of the sigmoid were retained for linear regression analysis and used in order to estimate the inhibitory concentration IC50. The products are solubilized in dimethylsulphoxide (DMSO) at 10^−2 M and finally used in culture with 0.1% DMSO.
(Tetrazolium assays rely on reduction of a dye to a coloured formazan, in cell work by metabolically active cells.)
Turning to `N[C@@H](CSSC[C@H](N)C(=O)N1CCn2nc(-c3ccncc3)cc2C1CCc1ccccc1)C(=O)N1CCn2nc(-c3ccncc3)cc2C1CCc1ccccc1` (mixture of isomers) [Example 14, (2R)-3-({(2R)-2-amino-3-oxo-3-[(4RS)-4-(2-phenylethyl)-2-pyridin-4-yl-6,7-dihydropyrazolo[1,5-a]pyrazin-5(4H)-yl]propyl}dithio)-1-oxo-1-[(4RS)-4-(2-phenylethyl)-2-pyridin-4-yl-6,7-dihydropyrazolo[1,5-a]pyrazin-5(4H)-yl]propan-2-amine hydrochloride], the IC50 was at most 10 µM.
Same read-out and setting: the result for `CC(C)(C)OC(=O)N[C@@H](CSSC[C@H](NC(=O)OC(C)(C)C)C(=O)N1CCn2nc(-c3ccncc3)cc2C1CCc1ccccc1)C(=O)N1CCn2nc(-c3ccncc3)cc2C1CCc1ccccc1` (mixture of isomers) [Example 3, tert-butyl {(1R)-1-[({(2R)-2-[(tert-butoxycarbonyl)amino]-3-oxo-3-[(4RS)-4-(2-phenylethyl)-2-pyridin-4-yl-6,7-dihydropyrazolo[1,5-a]pyrazin-5(4H)-yl]propyl}dithio)methyl]-2-oxo-2-[(4RS)-4-(2-phenylethyl)-2-pyridin-4-yl-6,7-dihydropyrazolo[1,5-a]pyrazin-5(4H)-yl]ethyl}carbamate] reads at most 10 µM.

A further series deals with A2058 (human melanoma cancer cells). The experiment in a line: Anti-proliferative activity on A2058 cell line (WST1 colorimetric test). The class given is cell-based. The settings on record: treated for 96 hours, read-out: IC50 on the cell proliferation of the A2058 lines. The method, then:
as §1
Turning to `N[C@@H](CSSC[C@H](N)C(=O)N1CCn2nc(-c3ccncc3)cc2C1CCc1ccccc1)C(=O)N1CCn2nc(-c3ccncc3)cc2C1CCc1ccccc1` (mixture of isomers) [Example 14, (2R)-3-({(2R)-2-amino-3-oxo-3-[(4RS)-4-(2-phenylethyl)-2-pyridin-4-yl-6,7-dihydropyrazolo[1,5-a]pyrazin-5(4H)-yl]propyl}dithio)-1-oxo-1-[(4RS)-4-(2-phenylethyl)-2-pyridin-4-yl-6,7-dihydropyrazolo[1,5-a]pyrazin-5(4H)-yl]propan-2-amine hydrochloride], the IC50 is at most 30 µM.

Test system in another series: not given
Assay: not given
Conditions: not given
In the case of `CC(C)(C)OC(=O)N[C@@H](CSSC[C@H](NC(=O)OC(C)(C)C)C(=O)N1CCn2nc(-c3cccs3)cc2C1CCc1ccccc1)C(=O)N1CCn2nc(-c3cccs3)cc2C1CCc1ccccc1` (mixture of isomers) [Example 7, tert-butyl {(1R)-1-[({(2R)-2-[(tert-butoxycarbonyl)amino]-3-oxo-3-[(4RS)-4-(2-phenylethyl)-2-(2-thienyl)-6,7-dihydropyrazolo[1,5-a]pyrazin-5(4H)-yl]propyl}dithio)methyl]-2-oxo-2-[(4RS)-4-(2-phenylethyl)-2-(2-thienyl)-6,7-dihydropyrazolo[1,5-a]pyrazin-5(4H)-yl]ethyl}carbamate], the melting point (commonly the temperature of the solid-liquid transition) was in the range of 105 to 112 °C.
`CCCCC1c2cc(-c3ccccc3)nn2CCN1C(=O)[C@H](CSSC[C@H](NC(=O)OC(C)(C)C)C(=O)N1CCn2nc(-c3ccccc3)cc2C1CCCC)NC(=O)OC(C)(C)C` (mixture of isomers) [Example 10, tert-butyl {(1R)-1-[({(2R)-2-[(tert-butoxycarbonyl)amino]-3-[(4RS)-4-butyl-2-phenyl-6,7-dihydropyrazolo[1,5-a]pyrazin-5(4H)-yl]-3-oxopropyl}dithio)methyl]-2-[(4RS)-4-butyl-2-phenyl-6,7-dihydropyrazolo[1,5-a]pyrazin-5(4H)-yl]-2-oxoethyl}carbamate] gave a melting point of 95 to 102 °C.
The same measure, in the same setting: the same measure for `N[C@@H](C[Se][Se]C[C@H](N)C(=O)N1CCn2nc(-c3ccccc3)cc2C1CC1CCCCC1)C(=O)N1CCn2nc(-c3ccccc3)cc2C1CC1CCCCC1` (mixture of isomers) (as salt: hydrochloride): 217 to 220 °C (dec.); for `N[C@@H](CSSC[C@H](N)C(=O)N1CCn2nc(-c3ccc(Cl)cc3Cl)cc2C1CCc1ccccc1)C(=O)N1CCn2nc(-c3ccc(Cl)cc3Cl)cc2C1CCc1ccccc1` (mixture of isomers) (as salt: hydrochloride) [Example 22, (2R)-3-({(2R)-2-amino-3-[(4RS)-2-(2,4-dichlorophenyl)-4-(2-phenylethyl)-6,7-dihydropyrazolo[1,5-a]pyrazin-5(4H)-yl]-3-oxopropyl}dithio)-1-[(4RS)-2-(2,4-dichlorophenyl)-4-(2-phenylethyl)-6,7-dihydropyrazolo[1,5-a]pyrazin-5(4H)-yl]-1-oxopropan-2-amine hydrochloride]: 198 to 202 °C; for `COc1cc(-c2cc3n(n2)CCN(C(=O)[C@@H](N)CSSC[C@H](N)C(=O)N2CCn4nc(-c5cc(OC)c(OC)c(OC)c5)cc4C2CCc2ccccc2)C3CCc2ccccc2)cc(OC)c1OC` (mixture of isomers) (as salt: hydrochloride) [Example 17, (2R)-3-({(2R)-2-amino-3-oxo-3-[(4RS)-4-(2-phenylethyl)-2-(3,4,5-trimethoxyphenyl)-6,7-dihydropyrazolo[1,5-a]pyrazin-5(4H)-yl]propyl}dithio)-1-oxo-1-[(4RS)-4-(2-phenylethyl)-2-(3,4,5-trimethoxyphenyl)-6,7-dihydropyrazolo[1,5-a]pyrazin-5(4H)-yl]propan-2-amine hydrochloride]: 211 °C (dec.).
The same measure, in the same setting: the same measure for `N[C@@H](CSSC[C@H](N)C(=O)N1CCn2nc(-c3ccco3)cc2C1CCc1ccccc1)C(=O)N1CCn2nc(-c3ccco3)cc2C1CCc1ccccc1` (mixture of isomers) (as salt: hydrochloride) [Example 19, (2R)-3-({(2R)-2-amino-3-[(4RS)-2-(2-furyl)-4-(2-phenylethyl)-6,7-dihydropyrazolo[1,5-a]pyrazin-5(4H)-yl]-3-oxopropyl}dithio)-1-[(4RS)-2-(2-furyl)-4-(2-phenylethyl)-6,7-dihydropyrazolo[1,5-a]pyrazin-5(4H)-yl]-1-oxopropan-2-amine hydrochloride]: 207 °C (dec.).
The same measure, in the same setting: the result for `CC(C)(C)OC(=O)N[C@@H](CSSC[C@H](NC(=O)OC(C)(C)C)C(=O)N1CCn2nc(-c3cccnc3)cc2C1CCc1ccccc1)C(=O)N1CCn2nc(-c3cccnc3)cc2C1CCc1ccccc1` (mixture of isomers) [Example 4, tert-butyl {(1R)-1-[({(2R)-2-[(tert-butoxycarbonyl)amino]-3-oxo-3-[(4RS)-4-(2-phenylethyl)-2-pyridin-3-yl-6,7-dihydropyrazolo[1,5-a]pyrazin-5(4H)-yl]propyl}dithio)methyl]-2-oxo-2-[(4RS)-4-(2-phenylethyl)-2-pyridin-3-yl-6,7-dihydropyrazolo[1,5-a]pyrazin-5(4H)-yl]ethyl}carbamate] reads 115 to 130 °C; that for `CC(C)(C)OC(=O)N[C@@H](C[Se][Se]C[C@H](NC(=O)OC(C)(C)C)C(=O)N1CCn2nc(-c3ccccc3)cc2C1CC1CCCCC1)C(=O)N1CCn2nc(-c3ccccc3)cc2C1CC1CCCCC1` (mixture of isomers), 117 to 120 °C.
In the case of `CCCCCC1c2cc(-c3ccccc3)nn2CCN1C(=O)[C@@H](N)CSSC[C@H](N)C(=O)N1CCn2nc(-c3ccccc3)cc2C1CCCCC` (mixture of isomers) (as salt: hydrochloride) [Example 20, (2R)-3-({(2R)-2-amino-3-oxo-3-[(4RS)-4-pentyl-2-phenyl-6,7-dihydropyrazolo[1,5-a]pyrazin-5(4H)-yl]propyl}dithio)-1-oxo-1-[(4RS)-4-pentyl-2-phenyl-6,7-dihydropyrazolo[1,5-a]pyrazin-5(4H)-yl]propan-2-amine hydrochloride], the melting point was 199 to 204 °C (dec.).
Still for that read-out and setting: the result for `CCCCC1c2cc(-c3ccccc3)nn2CCN1C(=O)[C@@H](N)CSSC[C@H](N)C(=O)N1CCn2nc(-c3ccccc3)cc2C1CCCC` (mixture of isomers) (as salt: hydrochloride) [Example 21, (2R)-3-({(2R)-2-amino-3-[(4RS)-4-butyl-2-phenyl-6,7-dihydropyrazolo[1,5-a]pyrazin-5(4H)-yl]-3-oxopropyl}dithio)-1-[(4RS)-4-butyl-2-phenyl-6,7-dihydropyrazolo[1,5-a]pyrazin-5(4H)-yl]-1-oxopropan-2-amine hydrochloride] reads 210 to 215 °C (dec.); that for `CC(C)(C)OC(=O)N[C@@H](CSSC[C@H](NC(=O)OC(C)(C)C)C(=O)N1CCCn2nc(-c3ccccc3)cc2C1CC1CCCCC1)C(=O)N1CCCn2nc(-c3ccccc3)cc2C1CC1CCCCC1` (mixture of isomers) [Example 27, tert-butyl {(1R)-1-[({(2R)-2-[(tert-butoxycarbonyl)amino]-3-[(4RS)-4-(cyclohexylmethyl)-2-phenyl-7,8-dihydro-4H-pyrazolo[1,5-a][1,4]diazepin-5(6H)-yl]-3-oxopropyl}dithio)methyl]-2-[(4RS)-4-(cyclohexylmethyl)-2-phenyl-7,8-dihydro-4H-pyrazolo[1,5-a][1,4]diazepin-5(6H)-yl]-2-oxoethyl}carbamate], 105 to 116 °C.
Still for that read-out and setting: the same measure for `CC(C)(C)OC(=O)N[C@@H](CSSC[C@H](NC(=O)OC(C)(C)C)C(=O)N1CCn2nc(-c3ccccc3)cc2[C@H]1CC1CCCCC1)C(=O)N1CCn2nc(-c3ccccc3)cc2[C@H]1CC1CCCCC1` [Example 25, tert-butyl {(1R)-1-[({(2R)-2-[(tert-butoxycarbonyl)amino]-3-[(4R)-4-(cyclohexylmethyl)-2-phenyl-6,7-dihydropyrazolo[1,5-a]pyrazin-5(4H)-yl]-3-oxopropyl}dithio)methyl]-2-[(4R)-4-(cyclohexylmethyl)-2-phenyl-6,7-dihydropyrazolo[1,5-a]pyrazin-5(4H)-yl]-2-oxoethyl}carbamate]: 114 to 139 °C.
